# Columns and labels:
# [1] = biological target: Glutamate receptor ionotropic, NMDA 1 (Homo sapiens, UniProt Q05586); assay: Compound was evaluated for its binding affinity for the glycine binding site on N-methyl-D-aspartate glutamate receptor by using [3H]MDL-105519 binding assay
# [2] = biological target: Glutamate [NMDA] receptor; assay: Compound has been evaluated for its binding affinity towards N-methyl-D-aspartate glutamate receptor by displacing the radioligand [3H]MK-801; assay type: protein-complex assay
# [3] = biological target: Glutamate receptor ionotropic AMPA (Homo sapiens, UniProt P42261+P42262+P42263+P48058); assay: Compound has been evaluated for its binding affinity towards Ionotropic glutamate receptor AMPA by displacing the radioligand [3H]AMPA; assay type: protein-complex assay
# [4] = biological target: Glutamate [NMDA] receptor; assay: Compound has been evaluated for its binding affinity towards N-methyl-D-aspartate glutamate receptor by displacing the radioligand [3H]CGP-39653; assay type: protein-complex assay
# Mus musculus [5] = assay: Percent protection offered by the compound (10 mg/kg) in maximal electroshock test in mice, 60 min after intravenous administration; assay type: functional
# [6] = biological target: Glutamate receptor ionotropic kainate; assay: Compound has been evaluated for its binding affinity towards kainate by displacing the radioligand [3H]kainate; assay type: protein-complex assay
# Mus musculus [7] = assay: Effective dose of the intravenously administered compound, protecting the mice in the maximal electroshock test; assay type: functional; details: iv
# [8] = biological target: Glutamate receptor ionotropic kainate (Homo sapiens) (UniProt P39086+Q16478+Q16099+Q13002+Q13003); assay: Inhibition of binding of [3H]kainate to kainate at 10 uM compound concentration; assay type: protein-complex assay
# Mus musculus [9] = species: Mus musculus; assay: Biodistribution of the injected compound in intestines of female BALB/C mice for 0.5 hours; assay type: ADME, organism-based, Intestine; details: in vivo
# Mus musculus [10] = species: Mus musculus; assay: Biodistribution of the injected compound in heart of female BALB/C mice for 0.5 hours; assay type: ADME, organism-based; details: in vivo
# Mus musculus [11] = species: Mus musculus; assay: Biodistribution of the injected compound in brain of female BALB/C mice for 2.5 hours; assay type: ADME, organism-based; details: in vivo
# Mus musculus [12] = species: Mus musculus; assay: Biodistribution of the injected compound in spleen of female BALB/C mice for 2.5 hours; assay type: ADME, organism-based; details: in vivo
# Mus musculus [13] = species: Mus musculus; assay: Biodistribution of the injected compound in brain of female BALB/C mice for 0.5 hours; assay type: ADME, organism-based; details: in vivo
# Mus musculus [14] = species: Mus musculus; assay: Biodistribution of the injected compound in muscle of female BALB/C mice for 0.5 hours; assay type: ADME, organism-based, Muscle tissue; details: in vivo
# Mus musculus [15] = species: Mus musculus; assay: Biodistribution of the injected compound in liver of female BALB/C mice for 2.5 hours; assay type: ADME, organism-based; details: in vivo
# Mus musculus [16] = species: Mus musculus; assay: Biodistribution of the injected compound in kidneys of female BALB/C mice for 5 hours; assay type: ADME, organism-based, Kidney; details: in vivo
# [17] = Octanol/water distribution coefficient at pH 4.8; assay type: physicochemical
# Mus musculus [18] = species: Mus musculus; assay: Biodistribution of the injected compound in liver of female BALB/C mice for 5 hours; assay type: ADME, organism-based; details: in vivo
# Mus musculus [19] = species: Mus musculus; assay: Biodistribution of the injected compound in kidneys of female BALB/C mice for 2.5 hours; assay type: ADME, organism-based, Kidney; details: in vivo
# Mus musculus [20] = species: Mus musculus; assay: Biodistribution of the injected compound in heart of female BALB/C mice for 2.5 hours; assay type: ADME, organism-based; details: in vivo
# Mus musculus [21] = species: Mus musculus; assay: Biodistribution of the injected compound in stomach of female BALB/C mice for 5 hours; assay type: ADME, organism-based; details: in vivo
# Mus musculus [22] = species: Mus musculus; assay: Biodistribution of the injected compound in lung of female BALB/C mice for 5 hours; assay type: ADME, organism-based; details: in vivo
# Mus musculus [23] = species: Mus musculus; assay: Biodistribution of the injected compound in intestines of female BALB/C mice for 5 hours; assay type: ADME, organism-based, Intestine; details: in vivo
# Mus musculus [24] = species: Mus musculus; assay: Biodistribution of the injected compound in intestines of female BALB/C mice for 2.5 hours; assay type: ADME, organism-based, Intestine; details: in vivo
# Mus musculus [25] = species: Mus musculus; assay: Biodistribution of the injected compound in muscle of female BALB/C mice for 2.5 hours; assay type: ADME, organism-based, Muscle tissue; details: in vivo
# [26] = Octanol/water distribution coefficient at pH 3; assay type: physicochemical
# Mus musculus [27] = species: Mus musculus; assay: Biodistribution of the injected compound in heart of female BALB/C mice for 5 hours; assay type: ADME, organism-based; details: in vivo
# [28] = Octanol/water distribution coefficient at pH 5.5; assay type: physicochemical
# [29] = Octanol/water distribution coefficient at pH 7.4; assay type: physicochemical
# Mus musculus [30] = species: Mus musculus; assay: Biodistribution of the injected compound in muscle of female BALB/C mice for 5 hours; assay type: ADME, organism-based, Muscle tissue; details: in vivo
# [31] = Octanol/water distribution coefficient at pH 6.5; assay type: physicochemical
# Mus musculus [32] = species: Mus musculus; assay: Biodistribution of the injected compound in brain of female BALB/C mice for 5 hours; assay type: ADME, organism-based; details: in vivo
# Mus musculus [33] = species: Mus musculus; assay: Biodistribution of the injected compound in stomach of female BALB/C mice for 0.5 hours; assay type: ADME, organism-based; details: in vivo
# Mus musculus [34] = species: Mus musculus; assay: Biodistribution of the injected compound in spleen of female BALB/C mice for 5 hours; assay type: ADME, organism-based; details: in vivo
# [35] = Octanol/water distribution coefficient at pH 4; assay type: physicochemical
# Mus musculus [36] = species: Mus musculus; assay: Biodistribution of the injected compound in lung of female BALB/C mice for 0.5 hours; assay type: ADME, organism-based; details: in vivo
# Mus musculus [37] = species: Mus musculus; assay: Biodistribution of the injected compound in bone of female BALB/C mice for 2.5 hours; assay type: ADME, organism-based, Bone element; details: in vivo
# Mus musculus [38] = species: Mus musculus; assay: Biodistribution of the injected compound in blood of female BALB/C mice for 5 hours; assay type: ADME, organism-based; details: in vivo
# Mus musculus [39] = species: Mus musculus; assay: Biodistribution of the injected compound in kidneys of female BALB/C mice for 0.5 hours; assay type: ADME, organism-based, Kidney; details: in vivo
# Mus musculus [40] = species: Mus musculus; assay: Biodistribution of the injected compound in bone of female BALB/C mice for 0.5 hours; assay type: ADME, organism-based, Bone element; details: in vivo
# Mus musculus [41] = species: Mus musculus; assay: Biodistribution of the injected compound in blood of female BALB/C mice for 2.5 hours; assay type: ADME, organism-based; details: in vivo
# Mus musculus [42] = species: Mus musculus; assay: Biodistribution of the injected compound in blood of female BALB/C mice for 0.5 hours; assay type: ADME, organism-based; details: in vivo
# Mus musculus [43] = species: Mus musculus; assay: Biodistribution of the injected compound in spleen of female BALB/C mice for 0.5 hours; assay type: ADME, organism-based; details: in vivo
# Mus musculus [44] = species: Mus musculus; assay: Biodistribution of the injected compound in bone of female BALB/C mice for 5 hours; assay type: ADME, organism-based, Bone element; details: in vivo
# Mus musculus [45] = species: Mus musculus; assay: Biodistribution of the injected compound in stomach of female BALB/C mice for 2.5 hours; assay type: ADME, organism-based; details: in vivo
# Mus musculus [46] = species: Mus musculus; assay: Biodistribution of the injected compound in liver of female BALB/C mice for 0.5 hours; assay type: ADME, organism-based; details: in vivo
# Mus musculus [47] = species: Mus musculus; assay: Biodistribution of the injected compound in lung of female BALB/C mice for 2.5 hours; assay type: ADME, organism-based; details: in vivo
# [48] = Octanol/water distribution coefficient at pH 7.5; assay type: physicochemical
smiles,measurement,setting,value
C[C@@H](NCc1cc([N+](=O)[O-])cc2[nH]c(=O)c(=O)[nH]c12)[P+]([O-])(O)O,IC50,[1],32 nM
C[C@@H](NCc1cc(Br)cc2nc(O)c(O)nc12)P(=O)(O)O,IC50,[2],> 10000 nM
same,IC50,[3],3000 nM
same,IC50,[1],5 nM
same,IC50,[4],> 10000 nM
same,Protection,Mus musculus [5],60%
same,IC50,[6],2700 nM
same,ED50,Mus musculus [7],5 mg/kg
C[C@@H](NCc1cc(F)cc2[nH]c(=O)c(=O)[nH]c12)P(=O)(O)O,IC50,[1],9 nM
C[C@@H](NCc1cc(C(F)(F)F)cc2[nH]c(=O)c(=O)[nH]c12)P(=O)(O)O,IC50,[1],8 nM
C[C@@H](NCc1cc(I)cc2nc(O)c(O)nc12)P(=O)(O)O,Protection,Mus musculus [5],20%
same,ED50,Mus musculus [7],10 mg/kg
same,inhibition,[8],49%
C[C@@H](NCc1cc(C#N)cc2[nH]c(=O)c(=O)[nH]c12)P(=O)(O)O,IC50,[1],76 nM
C[C@@H](NCc1cc(Cl)cc2nc(O)c(O)nc12)P(=O)(O)O,IC50,[1],6 nM
C[C@@H](NCc1cc(I)cc2[nH]c(=O)c(=O)[nH]c12)P(=O)(O)O,IC50,[2],> 10000 nM
same,Injected dose/g tissue,Mus musculus [9],0.44%
same,IC50,[3],340 nM
same,Injected dose/g tissue,Mus musculus [10],1.34%
same,IC50,[1],8 nM
same,Injected dose/g tissue,Mus musculus [11],0.01%
same,Injected dose/g tissue,Mus musculus [12],0.23%
same,Injected dose/g tissue,Mus musculus [13],0.03%
same,Injected dose/g tissue,Mus musculus [14],0.4%
same,Injected dose/g tissue,Mus musculus [15],0.49%
same,Injected dose/g tissue,Mus musculus [16],2.98%
same,logD,[17],-1.5
same,Injected dose/g tissue,Mus musculus [18],0.43%
same,Injected dose/g tissue,Mus musculus [19],3.29%
same,Injected dose/g tissue,Mus musculus [20],0.93%
same,Injected dose/g tissue,Mus musculus [21],0.22%
same,Injected dose/g tissue,Mus musculus [22],0.38%
same,Injected dose/g tissue,Mus musculus [23],0.2%
same,IC50,[4],> 10000 nM
same,Injected dose/g tissue,Mus musculus [24],0.22%
same,Injected dose/g tissue,Mus musculus [25],0.21%
same,logD,[26],-0.8
same,Injected dose/g tissue,Mus musculus [27],0.82%
same,logD,[28],-1.6
same,logD,[29],-2.5
same,Injected dose/g tissue,Mus musculus [30],0.19%
same,logD,[31],-1.7
same,Injected dose/g tissue,Mus musculus [32],0.01%
same,Injected dose/g tissue,Mus musculus [33],0.58%
same,Injected dose/g tissue,Mus musculus [34],0.21%
same,logD,[35],-1.2
same,Injected dose/g tissue,Mus musculus [36],0.96%
same,Injected dose/g tissue,Mus musculus [37],0.92%
same,Injected dose/g tissue,Mus musculus [38],0.49%
same,Injected dose/g tissue,Mus musculus [39],6.68%
same,Injected dose/g tissue,Mus musculus [40],1.46%
same,Injected dose/g tissue,Mus musculus [41],0.54%
same,Injected dose/g tissue,Mus musculus [42],1.1%
same,Injected dose/g tissue,Mus musculus [43],0.46%
same,Injected dose/g tissue,Mus musculus [44],0.78%
same,Injected dose/g tissue,Mus musculus [45],0.23%
same,Injected dose/g tissue,Mus musculus [46],0.92%
same,Injected dose/g tissue,Mus musculus [47],0.4%
same,logD,[48],-1.8
